The subject of test [1] is Rattus norvegicus. The test can be described thus: Inhibition of the IgE-mediated passive cutaneous anaphylaxis (PCA) reaction in rat after intravenous administration; Range 0.31-0.45. The format is functional.
Test [2] relates to Rattus norvegicus. Briefly: Inhibition of the IgE-mediated passive cutaneous anaphylaxis (PCA) reaction in rat after intravenous administration; Range 0.39-0.96. The format is functional.
Test [3] has as its system Rattus norvegicus. Briefly: Inhibition of the IgE-mediated passive cutaneous anaphylaxis (PCA) reaction in rat after intravenous administration; Range 0.08-1.71. The format is functional.
Test [4] concerns Rattus norvegicus. Briefly: Inhibition of the IgE-mediated passive cutaneous anaphylaxis (PCA) reaction in rat after intravenous administration; Range 1.73-30.03. The format is functional.
Test [5] relates to Rattus norvegicus. Briefly: Inhibition of the IgE-mediated passive cutaneous anaphylaxis (PCA) reaction in rat after oral administration; Range 2.71-7.46. The format is functional.
The subject of test [6] is Rattus norvegicus. Briefly: Inhibition of the IgE-mediated passive cutaneous anaphylaxis (PCA) reaction in rat after intravenous administration; Range 0.047-0.108. The format is functional.
The subject of test [7] is Rattus norvegicus. Briefly: Inhibition of the IgE-mediated passive cutaneous anaphylaxis (PCA) reaction in rat after oral administration; NA means inactive. The format is functional, organism-based.
Test [8] has as its system Rattus norvegicus. Briefly: Inhibition of the IgE-mediated passive cutaneous anaphylaxis (PCA) reaction in rat after oral administration; Range 12.3-33.8. The format is functional.
Test [9] has as its system Rattus norvegicus. The test can be described thus: Inhibition of the IgE-mediated passive cutaneous anaphylaxis (PCA) reaction in rat after oral administration; Range 5.21-7.35. The format is functional.
Test [10] has as its system Rattus norvegicus. Briefly: Inhibition of the IgE-mediated passive cutaneous anaphylaxis (PCA) reaction in rat after intravenous administration; Range 0.34-0.45. The format is functional.
The subject of test [11] is Rattus norvegicus. The test can be described thus: Inhibition of the IgE-mediated passive cutaneous anaphylaxis (PCA) reaction in rat after oral administration; Range 0.07-22.7. The format is functional.
The test system of test [12] is Rattus norvegicus. The test can be described thus: Inhibition of the IgE-mediated passive cutaneous anaphylaxis (PCA) reaction in rat after intravenous administration; Range 0.007-0.049. The format is functional.
The test system of test [13] is Rattus norvegicus. Briefly: Inhibition of the IgE-mediated passive cutaneous anaphylaxis (PCA) reaction in rat after intravenous administration; Range 0.22-0.59. The format is functional.
For test [14], the system named is Rattus norvegicus. The test can be described thus: Inhibition of the IgE-mediated passive cutaneous anaphylaxis (PCA) reaction in rat after oral administration; NA means Inactive. The format is functional, organism-based.
Test [15] deals with Rattus norvegicus. Briefly: Inhibition of the IgE-mediated passive cutaneous anaphylaxis (PCA) reaction in rat after intravenous administration; Range 1.04-1.42. The format is functional.
Test [16] relates to Rattus norvegicus. The test can be described thus: Inhibition of the IgE-mediated passive cutaneous anaphylaxis (PCA) reaction in rat after oral administration; Range 0.07-0.03. The format is functional.
The test system of test [17] is Rattus norvegicus. Briefly: Inhibition of the IgE-mediated passive cutaneous anaphylaxis (PCA) reaction in rat after intravenous administration; Range 0.004-0.006. The format is functional.
Test [18] deals with Rattus norvegicus. Briefly: Inhibition of the IgE-mediated passive cutaneous anaphylaxis (PCA) reaction in rat after oral administration; Range 2.89-3.99. The format is functional.
Test [19] deals with Rattus norvegicus. The test can be described thus: Inhibition of the IgE-mediated passive cutaneous anaphylaxis (PCA) reaction in rat after intravenous administration; Range 0.08-0.37. The format is functional.
The test system of test [20] is Rattus norvegicus. The test can be described thus: Inhibition of the IgE-mediated passive cutaneous anaphylaxis (PCA) reaction in rat after intravenous administration; Range 1.07-3.93. The format is functional.
Test [21] relates to Rattus norvegicus. Briefly: Inhibition of the IgE-mediated passive cutaneous anaphylaxis (PCA) reaction in rat after oral administration; Range 0.74-2.02. The format is functional.
Test [22] deals with Rattus norvegicus. The test can be described thus: Inhibition of the IgE-mediated passive cutaneous anaphylaxis (PCA) reaction in rat after intravenous administration; Range 0.072-0.41. The format is functional.
Test [23] has as its system Rattus norvegicus. Briefly: Inhibition of the IgE-mediated passive cutaneous anaphylaxis (PCA) reaction in rat after intravenous administration; Range 0.025-0.11. The format is functional.
For test [24], the system named is Rattus norvegicus. The test can be described thus: Inhibition of the IgE-mediated passive cutaneous anaphylaxis (PCA) reaction in rat after oral administration; Range 0.51-7.81. The format is functional.
Test [25] deals with Rattus norvegicus. Briefly: Inhibition of the IgE-mediated passive cutaneous anaphylaxis (PCA) reaction in rat after oral administration; NA means inactive at 1 and 10 mg/Kg. The format is functional, organism-based.
The test system of test [26] is Rattus norvegicus. Briefly: Inhibition of the IgE-mediated passive cutaneous anaphylaxis (PCA) reaction in rat after intravenous administration; Range 0.43-0.74. The format is functional.
Test [27] deals with Rattus norvegicus. The test can be described thus: Inhibition of the IgE-mediated passive cutaneous anaphylaxis (PCA) reaction in rat after oral administration; Range 0.20-0.83. The format is functional.
In test [28] the test system is Rattus norvegicus. Briefly: Inhibition of the IgE-mediated passive cutaneous anaphylaxis (PCA) reaction in rat after intravenous administration; Range 0.20-0.5. The format is functional.
For test [29], the system named is Rattus norvegicus. Briefly: Inhibition of the IgE-mediated passive cutaneous anaphylaxis (PCA) reaction in rat after intravenous administration; Range 0.014-0.029. The format is functional.
Test [30] deals with Rattus norvegicus. Briefly: Inhibition of the IgE-mediated passive cutaneous anaphylaxis (PCA) reaction in rat after oral administration; Range 1.88-2.85. The format is functional.
The test system of test [31] is Rattus norvegicus. The test can be described thus: Inhibition of the IgE-mediated passive cutaneous anaphylaxis (PCA) reaction in rat after intravenous administration; Range 0.104. The format is functional.
Test [32] relates to Rattus norvegicus. The test can be described thus: Inhibition of the IgE-mediated passive cutaneous anaphylaxis (PCA) reaction in rat after oral administration; Inactive at 20 mg/kg. The format is functional, organism-based. The arrangement: dose 20 mg/kg.

The source made the active and inactive calls. The rule behind the calls is not given here.

The ED50 is the midpoint of the dose-response relation. The compound `Cc1nc(C(=O)O)c2c(O)nc3ccccc3n12` displayed a median effective dose (ED50) with Rattus norvegicus [1] of 0.37 mg/kg. As to `COc1ccc2c(c1)sc1nc(C(=O)O)cn12`, in the test with Rattus norvegicus [2], the 50% effect level (ED50) was put at a dose of 0.62 mg/kg. For `O=C(O)c1cc2c(O)nc3ccccc3n2n1`, the ED50 with Rattus norvegicus [3] was 0.33 mg/kg.

For `O=Cc1cn2c(n1)COc1ccccc1-2`, the median effective dose (ED50) was determined as 4.79 mg/kg with Rattus norvegicus [4] and 4.27 mg/kg with Rattus norvegicus [5]. For the compound `CC(=O)Nc1ccc2c(c1)-n1cc(C(=O)O)nc1CO2`, the ED50 in the test with Rattus norvegicus [6] worked out at 0.073 mg/kg. Besides, the ED50 result with Rattus norvegicus [7] was “inactive”. In turn, `O=C(O)c1cc2c(=O)n(-c3ccccc3)c3ccccc3n2c1` registered a median effective dose (ED50) with Rattus norvegicus [8] of 18.9 mg/kg.

As to `O=C(O)c1cn2c(n1)CCc1ccccc1-2`, the values for the ED50 in the test with Rattus norvegicus [9] and in the test with Rattus norvegicus [10] were 6.14 mg/kg and 0.39 mg/kg, respectively. For `Clc1ccc2c(Cl)cc3nc(-c4nn[nH]n4)cn3c2c1`, the ED50 was determined as 0.5 mg/kg in the test with Rattus norvegicus [11] and 0.016 mg/kg in the test on Rattus norvegicus [12]. Take `C[S+](=N)([O-])c1cc2nc(C(=O)O)cn2c2ccccc12` (configuration not stated): the median effective dose (ED50) in the test on Rattus norvegicus [13] was 0.35 mg/kg. For `O=C([O-])c1cc(=O)c2c(OCC(O)COc3cccc4oc(C(=O)[O-])cc(=O)c34)cccc2o1.[Na+].[Na+]` [CROMOLYN SODIUM], the ED50 entry with Rattus norvegicus [14] is “inactive”. Also, in the test with Rattus norvegicus [15], the 50% effective dose (ED50) came to 1.21 mg/kg. Take `CCCCCCc1cc([S+](C)(=N)[O-])cc2c(=O)c3cc(C(=O)O)ccc3oc12.NC(CO)(CO)CO` (configuration not stated): the ED50 in the test on Rattus norvegicus [16] is 0.19 mg/kg; in the test with Rattus norvegicus [17], 0.005 mg/kg. For the compound `COC(=O)c1cn2c(n1)COc1ccc(NC(C)=O)cc1-2`, it took a dose of 3.48 mg/kg to reach the 50% effect level with Rattus norvegicus [18] (ED50).

The compound `CCc1ccc2ccc3nc(C(=O)O)cn3c2c1` had an ED50 in the test on Rattus norvegicus [19] of 0.16 mg/kg. In turn, `O=C(O)c1cn2c(n1)N=S(=O)(c1ccccc1)c1ccccc1-2` (configuration not stated) returned a 50% effective dose (ED50) in the test on Rattus norvegicus [20] of 1.92 mg/kg. As to `CCCn1c(=O)c2nc(C(=O)OCC)cn2c2ccccc21`, in the test on Rattus norvegicus [21], the ED50 turned out to be 1.21 mg/kg.

The compound `COc1cccc2sc3nc(C(=O)O)cn3c12` showed an ED50 in the test with Rattus norvegicus [22] of 0.16 mg/kg.

As to `CS(=O)(=O)c1cc2nc(C(=O)O)cn2c2ccccc12`, the ED50 with Rattus norvegicus [23] was 0.047 mg/kg; in the test with Rattus norvegicus [24], 1.64 mg/kg. Take `Nc1nnnn1C(=O)c1cn2c(n1)COc1ccccc1-2`: in the test on Rattus norvegicus [25], the ED50 entry is “inactive”. In the test on Rattus norvegicus [26], the 50% effect level (ED50) was put at a dose of 0.58 mg/kg.

On to `O=C(Nc1nn[nH]n1)c1cn2c(ccc3ccccc32)n1`, for which the 50% effective dose (ED50) was 0.54 mg/kg in the test with Rattus norvegicus [27] and 0.31 mg/kg with Rattus norvegicus [28]. Consider `CCCn1c(=O)c2cc(C(=O)O)nn2c2ccccc21`, for which the 50% effective dose (ED50) in the test on Rattus norvegicus [29] turned out to be 0.023 mg/kg. As to `CCn1c(=O)c2cc(C=O)cn2c2ccccc21`, the 50% effect level in the test with Rattus norvegicus [30] (ED50) was put at a dose of 2.53 mg/kg. In turn, `O=C(O)c1ncn2c1c(O)nc1ccccc12` displayed a median effective dose (ED50) with Rattus norvegicus [31] of 0.104 mg/kg. The ED50 entry with Rattus norvegicus [32] was “inactive”.

Source of the values: ChEMBL document CHEMBL1124295, “Synthesis and oral antiallergic activity of carboxylic acids derived from imidazo[2,1-c][1,4]benzoxazines, imidazo[1,2-a]quinolines, imidazo[1,2-a]quinoxalines, imidazo[1,2-a]quinoxalinones, pyrrolo[1,2-a]quinoxalinones, pyrrolo[2,3-a]quinoxalinones, and imidazo[2,1-b]benzothiazoles” (1988).
